Converted amounts (≈) assume the structure as drawn.

The record followed here is ChEMBL document CHEMBL1159015, “Isolation of the bioactive terpene 7-deacetoxy-olepupuane from the temperate marine sponge Dysidea sp” (J Nat Prod, 1992).

The experiment relates to P388. The experiment in a line: Cytotoxicity against mouse P388 cells. The experiment is classed as functional, cell-based.

As usually defined, the IC50 is the concentration at which inhibition is half-maximal. On to `CC(=O)O[C@@H]1OC=C2CC[C@H]3C(C)(C)CCC[C@]3(C)[C@H]21`, for which the IC50 was found to be 16.4 µg/mL (≈ 58.9 µM).
